Experiment [1] deals with human opiate receptor μ (Homo sapiens, UniProt P35372). Put plainly: Radioligand binding assay, human opiate receptor μ. The text has this:
Another assay useful in the present invention concerns determining the ability of a ligand to bind to a biological receptor utilizing a technique well known in the art referred to as a radioligand binding assay. This assay accurately determines the specific binding of a radioligand to a targeted receptor through the delineation of its total and nonspecific binding components. Total binding is defined as the amount of radioligand that remains following the rapid separation of the radioligand bound in a receptor preparation (cell homogenates or recombinate receptors) from that which is unbound. The nonspecific binding component is defined as the amount of radioligand that remains following separation of the reaction mixture consisting of receptor, radioligand and an excess of unlabeled ligand. Under this condition, the only radioligand that remains represents that which is bound to components other that receptor. The specific radioligand bound is determined by subtracting the nonspecific from total radioactivity bound. For a specific example of radioligand binding assay for μ-opioid receptor, see Wang, J. B. et al. FEBS Letters 1994, 338, 217.
(§1) Radioligand Binding Assays (IC50, μM)
(§2) The radiobinding assays for human opiate receptor μ, κ and δ are conducted according the procedures outlined by Maguire et al. (Eur. Pharmacol. 1992, 213, 219).

Experiment [2] deals with human opiate receptor δ (Homo sapiens, UniProt P41143). Briefly: Radioligand binding assay, human opiate receptor δ. How it is done:
as §1, §2

The target of experiment [3] is human opiate receptor κ (Homo sapiens, UniProt P41145). Briefly: Radioligand binding assay, human opiate receptor κ. How it is done: as §1, §2
Chain of human opiate receptor κ (P41145 whole entry): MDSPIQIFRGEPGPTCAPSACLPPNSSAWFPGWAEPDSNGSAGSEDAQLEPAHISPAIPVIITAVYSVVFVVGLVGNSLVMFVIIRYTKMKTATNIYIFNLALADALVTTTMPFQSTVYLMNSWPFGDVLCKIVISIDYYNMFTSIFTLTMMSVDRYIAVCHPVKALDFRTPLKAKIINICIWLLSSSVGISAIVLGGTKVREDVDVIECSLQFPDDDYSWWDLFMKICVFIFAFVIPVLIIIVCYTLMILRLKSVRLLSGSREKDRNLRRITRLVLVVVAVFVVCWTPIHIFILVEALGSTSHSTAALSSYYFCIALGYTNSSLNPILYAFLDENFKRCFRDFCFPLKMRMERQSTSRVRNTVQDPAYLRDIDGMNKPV
A short description of experiment [4]: In vivo analgesia, tail flick model. The settings on record: Rattus norvegicus. How it is done:
(§3) Various experimental procedures, well known in the art, are useful in the present invention to assess the analgesic effect of compounds, such as the “tail flick” and “hot plate” tests. The “tail flick” test can be performed by applying a noxious thermal stimulus to the rat's tail and determining the time until the nociceptive tail flick occurs.
(§4) In vivo Analgesia Experiments
The tail flick model was conducted according to D'Amour F. E. and Smith D. L. J. Pharmacol. Exp. Ther. 1941, 72, 74.

The nature of experiment [5]: In vivo analgesia, hot plate test. The settings on record: Rattus norvegicus.
Text: as §3, §4
In general terms: Thermal pain tests record how soon the animal reacts.

Setting [6] is: radioligand binding, human opiate receptor μ, read-out: μ (IC50).
The mark [7] stands for this setting: radioligand binding, human opiate receptor δ, read-out: δ (IC50).
The mark [8] stands for this setting: radioligand binding, human opiate receptor κ, read-out: κ (IC50).

Like-named read-outs stand apart in the source and are kept apart here.

Chain of human opiate receptor μ (P35372 whole entry): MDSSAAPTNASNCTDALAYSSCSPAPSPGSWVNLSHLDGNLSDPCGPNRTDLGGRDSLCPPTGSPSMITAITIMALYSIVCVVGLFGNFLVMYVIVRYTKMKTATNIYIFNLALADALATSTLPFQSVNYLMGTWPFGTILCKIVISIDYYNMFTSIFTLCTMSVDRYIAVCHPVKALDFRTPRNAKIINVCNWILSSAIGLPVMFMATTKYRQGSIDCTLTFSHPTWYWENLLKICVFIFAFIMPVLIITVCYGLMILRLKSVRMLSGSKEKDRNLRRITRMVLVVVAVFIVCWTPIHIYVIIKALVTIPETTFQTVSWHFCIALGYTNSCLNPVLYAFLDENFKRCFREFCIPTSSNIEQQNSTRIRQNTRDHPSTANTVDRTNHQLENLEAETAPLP
Chain of human opiate receptor δ (P41143 whole entry): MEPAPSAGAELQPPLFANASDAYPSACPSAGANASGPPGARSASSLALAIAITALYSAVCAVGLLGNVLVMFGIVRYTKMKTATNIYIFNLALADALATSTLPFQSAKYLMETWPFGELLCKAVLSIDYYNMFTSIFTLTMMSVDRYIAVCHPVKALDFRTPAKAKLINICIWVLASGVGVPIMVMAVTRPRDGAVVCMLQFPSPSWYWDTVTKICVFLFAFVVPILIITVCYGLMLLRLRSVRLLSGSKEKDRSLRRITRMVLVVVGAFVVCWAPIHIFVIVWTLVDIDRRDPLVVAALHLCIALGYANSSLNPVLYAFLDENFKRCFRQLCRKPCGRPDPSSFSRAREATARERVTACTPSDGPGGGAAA

As a reminder, the IC50 is the point on the concentration scale where inhibition reaches its midpoint. For `CCC(=O)N(c1ccccc1)C(C)C12CN(CCc3ccccc3)CCC1CN(Cc1ccccc1)C2` (centres unmarked) [Compound 31], the IC50 is below 10 nM in experiment [1], below 1000 nM in experiment [2] and below 5000 nM in experiment [3].
For `CCC(=O)N(CC12CN(CCc3ccccc3)CCC1CN(C(C)=O)C2)c1ccccc1` (centres unmarked) [Compound 40], the IC50 in experiment [1] (setting [6]) is below 1000 nM.
As for `CCC(=O)N(CC12CN(CCc3ccccc3)CCC1CN(Cc1ccccc1)C2)c1ccccc1` (centres unmarked) [Compound 23], the IC50 in experiment [1] (setting [6]) is below 100 nM; in experiment [2] (setting [7]), below 1000 nM; in experiment [3] (setting [8]) it was below 5000 nM.
For the compound `CS(=O)(=O)N(CC12CN(CCc3ccccc3)CCC1CN(Cc1ccccc1)C2)c1ccccc1` (centres unmarked) [Compound 25], the IC50 in experiment [1] (setting [6]) is below 1000 nM; in experiment [3] (setting [8]) it was below 10000 nM.
Take `C[C@H](N(C(=O)C1CCC1)c1ccccc1)C12CN(CCc3ccccc3)CCC1CN(Cc1ccccc1)C2` (some centres unmarked) [Compound 32]: the IC50 was below 100 nM in experiment [1], below 1000 nM in experiment [2] and below 5000 nM in experiment [3].
For `O[C@@H](c1ccccc1)C12CN(CCc3ccccc3)CCC1CN(Cc1ccccc1)C2` (some centres unmarked) [Compound 11], the IC50 in experiment [1] (setting [6]) was below 1000 nM; in experiment [3] (setting [8]), below 5000 nM.
In the case of `CCC(=O)N(CC12CN(C)CC1CCN(CCc1ccccc1)C2)c1ccccc1` (centres unmarked) [Compound 42], the IC50 in experiment [1] (setting [6]) is below 1000 nM.
For `CCC(=O)N(CC12CN(CCc3ccccc3)CCC1CN(S(C)(=O)=O)C2)c1ccccc1` (centres unmarked) [Compound 41], the IC50 in experiment [1] (setting [6]) is below 1000 nM.
For the compound `C[C@@H](N(C(=O)C1CCC1)c1ccccc1)C12CN(CCc3ccccc3)CCC1CN(Cc1ccccc1)C2` (some centres unmarked) [Compound 33], the figures for the IC50 in experiment [1], in experiment [2] and in experiment [3] were below 1000 nM, below 5000 nM and below 5000 nM, respectively.
On to `COc1cccc(C(O)C23CN(CCc4ccccc4)CCC2CN(Cc2ccccc2)C3)c1` (centres unmarked) [Compound 14], for which, in experiment [1] (setting [6]), the IC50 was below 1000 nM.
With `CCC(=O)N(CC12CN(CCc3ccccc3)CCC1CN(CCc1ccccc1)C2)c1ccccc1` (centres unmarked) [Compound 36], the IC50 is below 10 nM in experiment [1], below 1000 nM in experiment [2] and below 5000 nM in experiment [3].
As usually defined, the ED50 is the midpoint of the dose-response relation. Read a high ED50 as weaker potency. For the compound `CCC(=O)N(C[C@]12CN(CCc3ccccc3)CCC1CN(CCc1ccccc1)C2)c1ccccc1` (single isomer, unassigned) [Compound 38], the IC50 in experiment [1] (setting [6]) is below 100 nM; in experiment [2] (setting [7]), below 1000 nM; in experiment [3] (setting [8]), below 5000 nM. For the same compound, the ED50 in experiment [4] was 0.18 mg/kg; in experiment [5], 152 mg/kg.
With `O[C@H](c1ccccc1)C12CN(CCc3ccccc3)CCC1CN(Cc1ccccc1)C2` (some centres unmarked) [Compound 12], the IC50 was below 1000 nM in experiment [1] (setting [6]) and below 5000 nM in experiment [3] (setting [8]).
As for `CCC(=O)N(C[C@@]12CN(CCc3ccccc3)CCC1CN(CCc1ccccc1)C2)c1ccccc1` (single isomer, unassigned) [Compound 37], the figures for the IC50 in experiment [1] (setting [6]), in experiment [2] (setting [7]) and in experiment [3] (setting [8]) were below 10 nM, below 1000 nM and below 1000 nM, respectively. Also, the ED50 is 0.05 mg/kg in experiment [4] and 0.06 mg/kg in experiment [5].
